Structures can show the parent of a compound that is named as a salt. *1 amine or outer side, *2 acyl side, *3 side chain or, on linkers, in order; H or OH if unused. Where a SMILES comes first, the peptide text is derived from it. Bridges are numbered along the chain shown (N, C = ends). [ ]: non-standard residue; d: D form. The star is where a group is joined. pTerphenylCO(4''-OnC5H11) = CCCCCOc1ccc(-c2ccc(-c3ccc(C(=O)*)cc3)cc2)cc1; Orn(4R-OH,5R-OH) = O=C([C@H](C[C@@H](O)[C@@H](O)N[*:3])N[*:1])[*:2]; hTyr(3S-OH,4S-OH) = N[C@H](C(=O)O)[C@H](O)[C@@H](O)c1ccc(O)cc1; Pro(3S-OH,4S-Me) = C[C@H]1CN[C@H](C(=O)O)[C@H]1O; Hyp = O=C(O)[C@@H]1C[C@@H](O)CN1
The molecules below were run on hDMFa myofibroblast cells (assay: Myofibroblast cytotoxicity, MTS cell viability assay). Conditions: 8-12 hours in serum-free inhibitor media, […].
In the case of `NCCC(=O)N[C@@H](Cc1cnc[nH]1)C(=O)O` [Cmpd 568, L-Carnosine], the “Compound Myofibroblast Cytotoxicity Activity” value is reported as 8.
`C#C[C@]1(O)CC[C@H]2[C@@H]3CCC4=CCCC[C@@H]4[C@H]3CC[C@@]21C` [Cmpd 623, Lynestrenol] was tested, and the “Compound Myofibroblast Cytotoxicity Activity” value was “+++++”.
For `CN(C)CCC=C1c2ccccc2C(C)(C)c2ccccc21` [Cmpd 647, Melitracen hydrochloride], the “Compound Myofibroblast Cytotoxicity Activity” value was “+++++”.
For `CC(=O)Oc1cc(C)c(OC(C)=O)c2ccccc12` [Cmpd 650, Menadiol Diacetate], the “Compound Myofibroblast Cytotoxicity Activity” value was “+++++”.
With `CCCCCCCCN=c1ccn(CCCCCCCCCCn2ccc(=NCCCCCCCC)cc2)cc1` [Cmpd 730, Octenidine (dihydrochloride)] the “Compound Myofibroblast Cytotoxicity Activity” value was “+++++”.
In the case of `CC1(C)CC[C@]2(C(=O)O)CC[C@]3(C)C(=CC[C@@H]4[C@@]5(C)CC[C@H](O)C(C)(C)[C@@H]5CC[C@]43C)[C@@H]2C1` [Cmpd 732, Oleanolic acid], the “Compound Myofibroblast Cytotoxicity Activity” value is reported as “+++++”.
`CCCCCCCCCCCCCCCCCCOP(=O)([O-])OC1CC[N+](C)(C)CC1` [Cmpd 771, Perifosine] was tested, and the “Compound Myofibroblast Cytotoxicity Activity” value was “+++++”.
For `O=C1[C@H]2CCCC[C@H]2C(=O)N1CCCCN1CCN(c2nsc3ccccc23)CC1` [Cmpd 772, Perospirone hydrochloride], the “Compound Myofibroblast Cytotoxicity Activity” value was “+++++”.
With `Nc1ccc2cc3ccc(N)cc3nc2c1.Nc1ccc2cc3ccc(N)cc3nc2c1.O=S(=O)(O)O` [Cmpd 798, Proflavine Hemisulfate] the “Compound Myofibroblast Cytotoxicity Activity” value was “+++++”.

Same assay, conditions: 8-12 hours in serum-free inhibitor media, […], HCl
For `Cl.NCCCC[C@H](N)C(=O)O` [Cmpd 597, L-Lysine HCl], the “Compound Myofibroblast Cytotoxicity Activity” value was “+”.

Same assay, conditions: MTS viability, 8-12 hours incubation in serum-free inhibitor media, normalized to negative control
For `CCCCCCCCCCCC[N+](C)(C)CCOc1ccccc1` [Cmpd 377, Domiphen Bromide], the “Compound Myofibroblast Cytotoxicity Activity” value was “+++++”.
In the case of `CO[C@H]1C[C@H](O[C@H]2[C@H](C)O[C@@H](O[C@@H]3/C(C)=C/C[C@@H]4C[C@@H](C[C@]5(C=C[C@H](C)[C@@H](C6CCCCC6)O5)O4)OC(=O)[C@@H]4C=C(C)[C@@H](O)[C@H]5OC/C(=C\C=C\[C@@H]3C)[C@]54O)C[C@@H]2OC)O[C@@H](C)[C@@H]1O` [Cmpd 379, Doramectin], the “Compound Myofibroblast Cytotoxicity Activity” value is reported as “+++++”.
With `CC(C)(C)c1cc(C(C)(C)C)c(NC(=O)c2c[nH]c3ccccc3c2=O)cc1O` [Cmpd 545, Ivacaftor (VX-770)] the “Compound Myofibroblast Cytotoxicity Activity” value was “+++++”.

Same assay, conditions: serum-free media with inhibitor 8-12 hours, MTS cell viability, inhibition normalized as percentage of negative control
In the case of `OCCCCCCCCO` [Cmpd 38, 1,8-Octanediol], the “Compound Myofibroblast Cytotoxicity Activity” value is reported as “+”.
With `Cc1cc(O)cc(C(C)C)c1` [Cmpd 53] the “Compound Myofibroblast Cytotoxicity Activity” value was “+”.
For `CCCCCOc1ccc(-c2ccc(-c3ccc(C(=O)N[C@H]4C[C@@H](O)[C@@H](O)NC(=O)[C@@H]5[C@@H](O)[C@@H](C)CN5C(=O)[C@H]([C@@H](C)O)NC(=O)[C@H]([C@H](O)[C@@H](O)c5ccc(O)cc5)NC(=O)[C@@H]5C[C@@H](O)CN5C(=O)[C@H]([C@@H](C)O)NC4=O)cc3)cc2)cc1` [Cmpd 124, Anidulafungin] ({pTerphenylCO(4''-OnC5H11)}-[Orn(4R-OH,5R-OH)]T[Hyp][hTyr(3S-OH,4S-OH)]T[Pro(3S-OH,4S-Me)]; lactam 1-C), the “Compound Myofibroblast Cytotoxicity Activity” value was “+++++”.
In the case of `C[C@H]1[C@H](C)CC[C@]2(C(=O)O)CC[C@]3(C)C(=CC[C@@H]4[C@@]5(C)C[C@@H](O)[C@H](O)[C@@](C)(CO)[C@@H]5CC[C@]43C)[C@H]12` [Cmpd 135, Asiatic acid], the “Compound Myofibroblast Cytotoxicity Activity” value is reported as “+++++”.
`CC1=C(C(=O)OC(C)C)C(c2cccc([N+](=O)[O-])c2)C(C(=O)OC2CN(C(c3ccccc3)c3ccccc3)C2)=C(N)N1` (centres unmarked) [Cmpd 148, Azelnidipine] was tested, and the “Compound Myofibroblast Cytotoxicity Activity” value was “+++++”.
With `COC(=O)OCOc1c2n(ccc1=O)N([C@@H]1c3ccccc3SCc3c1ccc(F)c3F)[C@@H]1COCCN1C2=O` [Cmpd 155, Baloxavir marboxil] the “Compound Myofibroblast Cytotoxicity Activity” value was “+++++”.
With `Cc1ccc([C@@H]2O[C@H](CO)[C@@H](O)[C@H](O)[C@H]2O)cc1Cc1ccc(-c2ccc(F)cc2)s1` [Cmpd 208, Canagliflozin] the “Compound Myofibroblast Cytotoxicity Activity” value was “+++++”.
In the case of `CCCCCCCCCCCCCCCC[N+](C)(C)C.[Br-]` [Cmpd 242, Cetrimonium Bromide (CTAB)], the “Compound Myofibroblast Cytotoxicity Activity” value is reported as “+++++”.
`COc1ccc2c(c[n+](C)c3c4cc5c(cc4ccc23)OCO5)c1OC.[Cl-]` [Cmpd 244, Chelerythrine Chloride] was tested, and the “Compound Myofibroblast Cytotoxicity Activity” value was “+++++”.

Same assay, conditions: serum-free media with inhibitor 8-12 hours, MTS viability normalized to negative control
For `COc1ccc2c(O[C@@H]3C[C@H]4C(=O)N[C@]5(C(=O)NS(=O)(=O)C6CC6)C[C@H]5/C=C\CCCCN(C)C(=O)[C@@H]4C3)cc(-c3nc(C(C)C)cs3)nc2c1C` [Cmpd 863, Simeprevir], the “Compound Myofibroblast Cytotoxicity Activity” value was “+++++”.
`CN[C@@H]1C[C@H]2O[C@@](C)([C@@H]1OC)n1c3ccccc3c3c4c(c5c6ccccc6n2c5c31)C(=O)NC4` [Cmpd 888, Staurosporine] was tested, and the “Compound Myofibroblast Cytotoxicity Activity” value was “+++++”.
With `Cc1ccc(Sc2ccccc2N2CCNCC2)c(C)c1` [Cmpd 1011, Vortioxetine] the “Compound Myofibroblast Cytotoxicity Activity” value was “+++++”.
For `Br.Cc1ccc(Sc2ccccc2N2CCNCC2)c(C)c1` [Cmpd 1012, Vortioxetine (Lu AA21004) HBr], the “Compound Myofibroblast Cytotoxicity Activity” value was “+++++”.
Sericin Gel [Cmpd 859] was tested, and the “Compound Myofibroblast Cytotoxicity Activity” value was “+”.
For Sodium Aescinate [Cmpd 869], the “Compound Myofibroblast Cytotoxicity Activity” value was “+++++”.

The molecules below were run on hDMFa myofibroblast cells (assay: not given). Conditions: not given.
With `O=c1[nH]c(=O)c2[nH]cnc2[nH]1` [Cmpd 1020, xanthine] the “Compound Myofibroblast Cytotoxicity Activity” value was “++”.
`COc1cc(C(=O)NS(=O)(=O)c2ccccc2C)ccc1Cc1cn(C)c2ccc(NC(=O)OC3CCCC3)cc12` [Cmpd 1023, Zafirlukast] was tested, and the “Compound Myofibroblast Cytotoxicity Activity” value was “+++++”.
In the case of `Nc1ccn([C@H]2CC[C@@H](CO)O2)c(=O)n1` [Cmpd 1024, Zalcitabine], the “Compound Myofibroblast Cytotoxicity Activity” value is reported as “++++”.
In the case of `O=C1Cc2cc(CCN3CCN(c4nsc5ccccc45)CC3)c(Cl)cc2N1` [Cmpd 1029, Ziprasidone HCl], the “Compound Myofibroblast Cytotoxicity Activity” value is reported as “++”.
In the case of Cilengitide [Cmpd 261], the “Compound Myofibroblast Cytotoxicity Activity” value is reported as “++++”.
Cyclo(RGDyK) [Cmpd 303] was tested, and the “Compound Myofibroblast Cytotoxicity Activity” value was “++”.
In the case of D-(−)-Isoascorbic Acid [Cmpd 306], the “Compound Myofibroblast Cytotoxicity Activity” value is reported as “+”.
With Fumalic acid [Cmpd 474] the “Compound Myofibroblast Cytotoxicity Activity” value was “++”.
Icatibant Acetate [Cmpd 514] was tested, and the “Compound Myofibroblast Cytotoxicity Activity” value was “++”.
For Lecithin, Soybean [Cmpd 577], the “Compound Myofibroblast Cytotoxicity Activity” value was “+”.
Teicoplanin [Cmpd 921] was tested, and the “Compound Myofibroblast Cytotoxicity Activity” value was “+++”.
Zinc Pyrithione [Cmpd 1026] was tested, and the “Compound Myofibroblast Cytotoxicity Activity” value was “+++++”.
In the case of beta-Alanine [Cmpd 174], the “Compound Myofibroblast Cytotoxicity Activity” value is reported as “++++”.

— US20260102359A1, “COMBINATION TREATMENT OF DERMAL AND TRANSDERMAL FIBROTIC DISEASES, DISORDERS AND ASSOCIATED PAIN AND INFLAMMATION” (ERESINA, LLC, priority 2022, published 2026)
